Measurements published in US11339193B2, “CDP protein secretion inhibitors” (KEZAR LIFE SCIENCES, priority 2018, dated 2022).
Read-outs that look alike come from different tables or passages of the source. Square brackets hold non-standard residues; d marks the D form. Peptide text beside a SMILES is read from it. NMeTrp(1-(4-Br-benzyl)) = CN[C@@H](Cc1cn(Cc2ccc(Br)cc2)c2ccccc12)C(=O)O; Butanoyl(2R-oxy,4-CN) = N#CCC[C@@H](O)C(=O)O; Abu(4,4,4-F3) = N[C@@H](CC(F)(F)F)C(=O)O; Ala(cPr) = N[C@@H](CC1CC1)C(=O)O; NMeL = CN[C@@H](CC(C)C)C(=O)O; NMeA = CN[C@@H](C)C(=O)O

Experiments:
Assay type in all cases: cell-based
[1] = system: PD1-ss+10aa/Gaussia Luciferase; test: Dox induced PD1-ss-Gluc assay
In short: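 Stable Flp-In 293 T-REx line expressing doxycycline-inducible Gaussia luciferase fused to the PD1 signal sequence plus 10 amino acids. Cells plated the day before, then exposed to compound dilutions in DMSO/media containing doxycycline at 37 °C, 5% CO2.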

[2] = system: TNFα-FL/Gaussia Luciferase; test: Dox induced TNFα-FL-Gluc assay
In short: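 Stable Flp-In 293 T-REx line expressing full-length TNFα (aa 1-233) fused at its C-terminus to Gaussia luciferase under doxycycline-inducible control. Cells plated the day before, then given compound dilutions in DMSO/media containing doxycycline and incubated at 37 °C, 5% CO2.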

[3] = system: NCI-H929 multiple myeloma cell line; test: H929 assay (cell viability, Celltiter-Glo); conditions: Homo sapiens, read-out: H929 EC50
In short: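 Cells plated in RPMI 1640 with 10% FBS and 2 mM glutamine, treated with compound dilutions in DMSO/media. Incubation 48 h at 37° C, 5% CO2. Viability from luciferase luminescence signal.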

[4] = system: Prl-ss+10aa/Gaussia Luciferase; test: Prl-ss-Gluc assay (constitutively active or 24 hr Dox inducible)
In short: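 Stable Flp-In 293 T-REx lines express Prl signal sequence+10aa fused to Gaussia luciferase, either constitutively (pcDNA5/FRT) or under the T-REx promoter (pcDNA5/FRT/TO). Cells plated the day before; compounds in DMSO/media (with doxycycline for the inducible line, 24 h) incubated at 37 °C, 5% CO2.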

[5] = system: VCAMss+10aa/Gaussia Luciferase; test: VCAM-ss-Gluc assay (constitutively active or Dox induced); conditions: Flp-In 293 T-REx cells, 24 hours
Protocol: Assays Constitutively Active VCAM-ss-Gluc Assay
Transfected cells were selected for resistance to the selectable markers Hygromycin and Blasticidin to create a stable cell line that constitutively expressed the VCAMss+ 10aa/Gaussia Luciferase fusion protein. The day before assay, cells were trypsinized and plated in 384-well tissue culture plates. The next day, culture media was removed from the wells and replaced with fresh media. Compound dilutions in DMSO/media were added to the wells and incubated at 37° C., 5% CO2.
Dox Induced VCAM-ss-Gluc Assay
Transfected cells were selected for resistance to the selectable markers Hygromycin and Blasticidin to create a stable cell line that contained the VCAMss+10aa/Gaussia Luciferase cDNA insert whose expression was regulated under the T-REx™ system. The day before assay, cells were trypsinized and plated in 384-well tissue culture plates. The next day, compound dilutions in DMSO/media containing doxycycline were added to the wells and incubated at 37° C., 5% CO2.

[6] = system: BT474 breast tumor cell line; test: BT474 assay (Alamar blue); conditions: Homo sapiens, BT-474, 72 h
Protocol: BT474 is a human breast tumor cell line. JJN3 is a human plasma cell leukemia cell line. […] Cells were seeded at 100 000 cells/mL. Aliquots of 5000 cells (50 μL) were added to each well in black, clear bottom 96-well plates. Compounds or control (50 uL of 1% DMSO in cell culture medium) were added to the cells to the indicated final concentrations and cells were incubated for 72 h (unless otherwise specified). After incubation was complete, Alamar blue (10 uL of a 1 mg/mL solution) was added to each well and plates were incubated for 5 h. Fluorescence was then measured (excitation 545 nm, emission 590 nm) and is reported as […] normalized to DMSO control.

[7] = system: JJN3 plasma cell leukemia cell line; test: JJN-3 assay (Alamar blue); conditions: Homo sapiens, 72 h
In short: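 For both lines, 5000 cells/well were exposed to compound or a 1% DMSO-medium control for 72 h unless otherwise specified. Signal was normalized to the DMSO control.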

[8] = system: U266B1 multiple myeloma cell line; test: U266 assay (cell viability, Celltiter-Glo); conditions: Homo sapiens, U-266; 48 hours, cell viability
Protocol: Cells were plated in 384-well tissue culture plates and treated with compound dilutions in DMSO/media. Plates were incubated at 37° C., 5% CO2 for 48 hours. After 48 hours, Celltiter-Glo@ (Promega) was added to each well and luciferase signal was quantified using Tecan Infinite M1000 Pro for cell viability determination.

HER3ss-Gluc = test: HER3ss assay
In short: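 HEK-293T T-REx cells were transiently transfected with HER3 signal sequence (plus four mature-domain residues) fused upstream of mature Gaussia luciferase. Cells were induced with doxycycline (1 μg/ml) and exposed to increasing compound concentrations for 24 h, then secreted luciferase in the conditioned medium was read by luminescence.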

[9] = Flp-In 293 T-REx cells, doxycycline, 24 hours; read-out: PD1ss Gluc IC50
[10] = Flp-In 293 T-REx cells, doxycycline, 24 hours; read-out: TNFa FL Gluc IC50
[11] = NCI-H929, 48 hours, cell viability
[12] = Flp-In 293 T-REx cells, 24 hours; read-out: Prl IC50
[13] = HEK-293T T-rex cells, transient transfection, doxycycline, 24 h; read-out: HER3 ss IC50

Row | SMILES | IC50 [1, 9] [nM] | IC50 [2, 10] [nM] | EC50 [3, 11] [nM] | IC50 [4, 12] [nM] | IC50 [5] [nM] | EC50 [6] [nM] | EC50 [7] [nM] | EC50 [8] [nM] | IC50 (HER3ss-Gluc; [13]) [nM] | IC50 ([1]; read-out: PD1ss Gluc IC50; Flp-In 293 T-REx cells, doxycycline, 24 hours) [nM] | IC50 ([2]; read-out: TNFa FL Gluc IC50; Flp-In 293 T-REx cells, doxycycline, 24 hours) [nM] | EC50 ([3]; NCI-H929, 48 h) [nM] | IC50 ([4]; read-out: Prl IC50; Flp-In 293 T-REx cells, 24 hours) [nM] | IC50 (HER3ss-Gluc; read-out: HER3 ss IC50; HEK-293T T-rex cells, transient transfection, doxycycline, 24 h) [nM]
1 | CC(C)C[C@@H]1NC(=O)[C@H](Cc2cn(Cc3ccc(F)cc3)c3ccccc23)N(C)C(=O)[C@H](CC(C)C)NC(=O)[C@H](CC(C)C)N(C)C(=O)[C@H](CC(C)C)NC(=O)[C@@H](CCC#N)OC(=O)[C@H](C)N(C)C1=O [C-12] (HELM PEPTIDE1{L.[meA].[N#CCC[C@@H](O[*:1])C(=O)[*:2]].L.[meL].L.[CN([C@@H](Cc1cn(Cc2ccc(F)cc2)c2ccccc12)C(=O)[*:2])[*:1]]}$PEPTIDE1,PEPTIDE1,1:R1-7:R2$$$V2.0) | 8 | 44 | 740 | 1110 | 230 | 627 | 71 | 6960 | 31 |  |  |  |  | 
2 | CC(C)C[C@@H]1NC(=O)[C@H](Cc2cn(Cc3ccc(F)nc3)c3ccccc23)N(C)C(=O)[C@H](CC(C)C)NC(=O)[C@H](CC(C)C)N(C)C(=O)[C@H](CC(C)C)NC(=O)[C@@H](CCC#N)OC(=O)[C@H](C)N(C)C1=O [C-36] (HELM PEPTIDE1{L.[meA].[N#CCC[C@@H](O[*:1])C(=O)[*:2]].L.[meL].L.[CN([C@@H](Cc1cn(Cc2ccc(F)nc2)c2ccccc12)C(=O)[*:2])[*:1]]}$PEPTIDE1,PEPTIDE1,1:R1-7:R2$$$V2.0) | 94 | 358 | 2870 | 1090 | 351 | 1540 | 289 |  | 345 |  |  |  |  | 
3 | Cc1cc(Cn2cc(C[C@H]3C(=O)N[C@@H](CC(C)C)C(=O)N(C)[C@@H](C)C(=O)O[C@H](CCC#N)C(=O)N[C@@H](CC(C)C)C(=O)N(C)[C@@H](CC(C)C)C(=O)N[C@@H](CC(C)C)C(=O)N3C)c3ccccc32)no1 [C-15] (HELM PEPTIDE1{L.[meA].[N#CCC[C@@H](O[*:1])C(=O)[*:2]].L.[meL].L.[Cc1cc(Cn2cc(C[C@@H](C(=O)[*:2])N(C)[*:1])c3ccccc32)no1]}$PEPTIDE1,PEPTIDE1,1:R1-7:R2$$$V2.0) | 475 | 4700 | 5930 | 6450 | 4010 | 2620 | 4860 | 20200 | 284 |  |  |  |  | 
4 | CC(C)C[C@@H]1NC(=O)[C@H](Cc2cn(Cc3ccc(Br)cc3)c3ccccc23)N(C)C(=O)[C@H](CC(C)C)NC(=O)[C@H](CC(C)C)N(C)C(=O)[C@H](CC(F)(F)F)NC(=O)[C@@H](CCC#N)OC(=O)[C@H](C)N(C)C1=O [C-41] (cyclo(L[NMeA][Butanoyl(2R-oxy,4-CN)][Abu(4,4,4-F3)][NMeL]L[NMeTrp(1-(4-Br-benzyl))])) |  |  |  |  | 32 | 832 | 73 |  |  | 19 | 77 | 1280 | 1010 | 23
5 | CC(C)C[C@@H]1NC(=O)[C@H](Cc2cn(Cc3ccc(F)c(F)c3)c3ccccc23)N(C)C(=O)[C@H](CC(C)C)NC(=O)[C@H](CC(C)C)N(C)C(=O)[C@H](CC(C)C)NC(=O)[C@@H](CCC#N)OC(=O)[C@H](C)N(C)C1=O [C-28] (HELM PEPTIDE1{L.[meA].[N#CCC[C@@H](O[*:1])C(=O)[*:2]].L.[meL].L.[CN([C@@H](Cc1cn(Cc2ccc(F)c(F)c2)c2ccccc12)C(=O)[*:2])[*:1]]}$PEPTIDE1,PEPTIDE1,1:R1-7:R2$$$V2.0) | 27 | 125 | 611 | 428 | 61 | 940 | 140 |  | 60 |  |  |  |  | 

Further lines, with some results ahead:

Row | IC50 [1, 9] [nM] | IC50 [2, 10] [nM] | EC50 [3, 11] [nM] | IC50 [4, 12] [nM] | IC50 [5] [nM] | EC50 [6] [nM] | EC50 [7] [nM] | EC50 [8] [nM] | IC50 (HER3ss-Gluc; [13]) [nM] | SMILES | IC50 ([1]; read-out: PD1ss Gluc IC50; Flp-In 293 T-REx cells, doxycycline, 24 hours) [nM] | IC50 ([2]; read-out: TNFa FL Gluc IC50; Flp-In 293 T-REx cells, doxycycline, 24 hours) [nM] | EC50 ([3]; NCI-H929, 48 h) [nM] | IC50 ([4]; read-out: Prl IC50; Flp-In 293 T-REx cells, 24 hours) [nM] | IC50 (HER3ss-Gluc; read-out: HER3 ss IC50; HEK-293T T-rex cells, transient transfection, doxycycline, 24 h) [nM]
6 | 37 | 357 | 3950 | 5470 | 167 | 3300 | 894 | 19900 |  | CC(C)C[C@@H]1NC(=O)[C@H](Cc2cn(Cc3ccc(C(F)(F)F)cc3)c3ccccc23)N(C)C(=O)[C@H](CC(C)C)NC(=O)[C@H](CC(C)C)N(C)C(=O)[C@H](CC(C)C)NC(=O)[C@@H](CCC#N)OC(=O)[C@H](C)N(C)C1=O [C-42] (HELM PEPTIDE1{L.[meA].[N#CCC[C@@H](O[*:1])C(=O)[*:2]].L.[meL].L.[CN([C@@H](Cc1cn(Cc2ccc(C(F)(F)F)cc2)c2ccccc12)C(=O)[*:2])[*:1]]}$PEPTIDE1,PEPTIDE1,1:R1-7:R2$$$V2.0) |  |  |  |  | 
7 | 385 | 1360 | 4250 | 6030 | 240 | 4190 | 1480 | 8880 | 216 | Cc1cccc(Cn2cc(C[C@H]3C(=O)N[C@@H](CC(C)C)C(=O)N(C)[C@@H](C)C(=O)O[C@H](CCC#N)C(=O)N[C@@H](CC(C)C)C(=O)N(C)[C@@H](CC(C)C)C(=O)N[C@@H](CC(C)C)C(=O)N3C)c3ccccc32)n1 [C-33] (HELM PEPTIDE1{L.[meA].[N#CCC[C@@H](O[*:1])C(=O)[*:2]].L.[meL].L.[Cc1cccc(Cn2cc(C[C@@H](C(=O)[*:2])N(C)[*:1])c3ccccc32)n1]}$PEPTIDE1,PEPTIDE1,1:R1-7:R2$$$V2.0) |  |  |  |  | 
8 | 108 | 373 | 2840 | 1250 | 207 | 1260 | 242 |  | 126 | CC(C)C[C@@H]1NC(=O)[C@H](Cc2cn(Cc3cncc(F)c3)c3ccccc23)N(C)C(=O)[C@H](CC(C)C)NC(=O)[C@H](CC(C)C)N(C)C(=O)[C@H](CC(C)C)NC(=O)[C@@H](CCC#N)OC(=O)[C@H](C)N(C)C1=O [C-35] (HELM PEPTIDE1{L.[meA].[N#CCC[C@@H](O[*:1])C(=O)[*:2]].L.[meL].L.[CN([C@@H](Cc1cn(Cc2cncc(F)c2)c2ccccc12)C(=O)[*:2])[*:1]]}$PEPTIDE1,PEPTIDE1,1:R1-7:R2$$$V2.0) |  |  |  |  | 
9 | 105 | 389 | 3700 | 6110 | 320 | 3880 | 957 |  | 317 | CC(C)C[C@@H]1NC(=O)[C@H](Cc2cn(Cc3ccc(Br)cc3)c3ccccc23)N(C)C(=O)[C@H](CC(C)C)NC(=O)[C@H](CC(C)C)N(C)C(=O)[C@H](CC2CC2)NC(=O)[C@@H](CCC#N)OC(=O)[C@H](C)N(C)C1=O [C-38] (cyclo([Ala(cPr)][NMeL]L[NMeTrp(1-(4-Br-benzyl))]L[NMeA][Butanoyl(2R-oxy,4-CN)])) |  |  |  |  | 
